Measured values as given in patent US20220296584A1, “Membrane Active Molecules” (priority 2017, published 2022).
“And” between values parts separate entries of the source, which are not always exact repeats. Equal entries are not always repeated.

Tests used:
Type in all cases: in vivo
[1] = system: CF-1 mice; experiment: Anticonvulsant test: intravenous metrazol (pentylenetetrazol) infusion, time to twitch and seizure; details: individual CF-1 mouse (Entry)
Protocol: CF-1 mice were used in this study. Number 20 PE tubing to cannulate a mouse tail vein was used. An infusion pump was used to deliver a solution at a rate of 0.34 mL/min. A hemostat was used to prevent backflow in the PE tubing before the experiment stated. To begin the experiment, the hemostat that was clamped to the PE 20 tubing was removed, the infusion of the solution was started into the tail IV of the mouse, and the timer was started.
The study reflects the time in seconds from the start of the infusion to the time of twitch and onset of seizure, or 90 seconds, whichever is sooner. When the seizure occurs, the infusion is turned off.
As a control, metrazol (pentylenetetrazol) in a 0.5% solution (5 mg/mL) in water was prepared. Pentylenetetrazol is used as a control to study seizure phenomena in and to identify compounds that may control seizure susceptibility. Solutions of 8 M butyric acid and 1.5 M 3-hydroxybutyric acid were made.
The time to twitch and time to seizure of the mouse in seconds is recorded in Tables 3-5, below.

[2] = system: mouse; experiment: Anesthetic effect in mice after subcutaneous or intravenous injection of aqueous solutions
Protocol: Butyric acid was dissolved in water to form an 8 M solution. 0.5 mL of the 8 M solution of butyric acid was injected subcutaneously (at the back of the neck) into the mouse.
3-hydroxybutyric acid was dissolved in water to form 1 M, 1.5 M, and 2 M solutions. 0.2 mL of a 1.5 M solution of 3-hydroxybutyric acid was injected into a tail vein of a CD-1 mouse. […] This was repeated for at least 2 more times on subsequent days.
Ethylmalonic acid was dissolved in water to form 2 M, 3 M, and 4 M solutions. 0.2 mL of a 3 M solution of ethylmalonic acid was injected into a tail vein of a mouse. […] This was repeated for at least 2 more times on subsequent days.
Ethylmalonic acid was dissolved in water to form a 4 M solution. 0.5 mL of the 4 M solution of ethylmalonic acid was injected subcutaneously into the mouse.

[3] = system: Tadpoles; experiment: Tadpole movement suppression (anesthetic efficacy)
Protocol: Tadpoles were placed in a petri dish containing aquarium water. Four to eight tadpoles were placed in each petri dish. The aquarium water contained the specified test compound at the listed concentration. When the tadpoles stopped moving, a plastic rod was used to elicit motion once again by contact between the rod and tadpole. […] From this and the number of subjects, the percent of tadpoles in which movement was suppressed were calculated.
After 1 to 30 minutes, they were again contacted with a rod to ensure the anesthetic effect had worn off
In some examples, subanesthetic concentrations of ethanol were added into the aquarium water. Tadpoles in which movement was prevented with exposure to a test compound and ethanol but not with exposure to a test compound alone were classified as partial anesthetics.

[4] = 1.5 M 3-hydroxybutyric acid solution plus metrazol
[5] = 8 M butyric acid solution plus metrazol
[6] = 0.5% metrazol tail vein infusion 0.34 mL/min

In the case of CC(O)CC(=O)O (stereo not drawn) [3-hydroxybutyric acid], the “3-Hydroxybutyric Acid and Metrazol Time to Seizures” value [1, 4] is reported as 74 seconds and 53 seconds (3×) and 48 seconds (2×) and 65 seconds and 61 seconds, the “3-Hydroxybutyric Acid and Metrazol Time to Twitch” value [1, 4] is reported as 54 s and 49 s and 47 s and 38 s and 50 s and 45 s and 41 s and 56 s and the “Observed effect on the mouse” value ([2]; 0.2 mL of 1.5 M solution in water, tail vein, CD-1 mouse) is reported as “became unconscious or anesthetic”. The “Observed effect on the mouse” value ([2]; 1 M solution in water, tail vein, CD-1 mouse) was “did not have any observable effect” and the Lethality ([2]; 2 M solution in water, tail vein, CD-1 mouse) was “lethal”.

For CCCC(=O)O [Butyric acid], the “Butyric Acid and Metrazol Time to Seizures” value [1, 5] was 51 seconds and 50 seconds (2×) and 47 seconds and 57 seconds (3×) and 42 seconds and 66 seconds and 41 seconds and 44 seconds and 38 seconds and 65 seconds, the “Butyric Acid and Metrazol Time to Twitch” value [1, 5] was 38 seconds and 42 seconds and 44 seconds and 50 seconds and 34 seconds (2×) and 53 seconds (2×) and 48 seconds and 36 seconds (2×) and 35 seconds (2×) and the “Movement suppressed (%)” value ([3]; Concentration (mM): 62.5) was 100%. For the same compound, the “Movement suppressed (%)” value ([3]; Concentration (mM): 125) was 100%, the “Movement suppressed (%)” value ([3]; Concentration (mM): 250) was 100% and the “Movement suppressed (%)” value ([3]; Concentration (mM): 500) was 100%. For the same compound, the Lethality ([2]; 0.2 mL of 8 M solution in water, intravenously through mouse tail vein) was “lethal” and the “Time until mouse woke up” value ([2]; 0.5 mL of 8 M solution in water, subcutaneously (back of the neck), mouse) was “several hours later”.

In the case of C1CCc2nnnn2CC1 [Metrazol, pentylenetetrazol, reference compound], the “Metrazol alone Time to Seizures” value [1, 6] is reported as 43 seconds (2×) and 42 seconds (2×) and 59 seconds and 45 seconds and 39 seconds and 49 seconds (2×) and the “Metrazol alone Time to Twitch” value [1, 6] is reported as 34 seconds (2×) and 33 seconds and 36 seconds (2×) and 37 seconds and 52 seconds and 31 seconds and 43 seconds.
